According to PubChem BioAssay (NCI):
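Test compounds were applied to cells in 96-well plates for 48 hours at 5 doses. TGI: concentration producing complete growth inhibition.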

What was measured:
Assay in all cases: NCI-60 cell line screen, 48 h
M14 melanoma = tested on: M14 melanoma
KM12 colon = tested on: KM12 colon
NCI-H460 lung = tested on: NCI-H460 lung
SF-295 CNS = tested on: SF-295 CNS
U251 CNS = tested on: U251 CNS
NCI-H522 lung = tested on: NCI-H522 lung
OVCAR-4 ovarian = tested on: OVCAR-4 ovarian
SK-MEL-2 melanoma = tested on: SK-MEL-2 melanoma
HT29 colon = tested on: HT29 colon
MDA-MB-435 = tested on: MDA-MB-435

| SMILES | TGI (M14 melanoma) [µM] | TGI (KM12 colon) [µM] | TGI (NCI-H460 lung) [µM] | TGI (SF-295 CNS) [µM] | TGI (U251 CNS) [µM] | TGI (NCI-H522 lung) [µM] | TGI (OVCAR-4 ovarian) [µM] | TGI (SK-MEL-2 melanoma) [µM] | TGI (HT29 colon) [µM] | TGI (MDA-MB-435) [µM] |
| --- | --- | --- | --- | --- | --- | --- | --- | --- | --- | --- |
| CN(C)CCNC(=O)c1ccc(NCCCN(C)CCCNc2ccc3c(=O)n(CCN(C)C)c(=O)n4c5ccccc5c(=O)c2c34)c2c(=O)c3ccccc3[nH]c12 | 0.67 | 0.319 | 0.0296 | 1.06 | 0.257 | 0.168 | 0.197 | 0.228 | 0.161 | 0.18 |
| CC(=O)OCC1OC(n2c3c(c(-c4cccc5ccccc45)c(C#N)c2=S)CCCC3)C(OC(C)=O)C(OC(C)=O)C1OC(C)=O (stereo not given) | > 100 | > 100 | > 100 | > 100 | > 100 | > 100 | > 100 | > 100 | > 100 | > 100 |
| Cc1ccc(C(=O)N/N=C(\N=Nc2cccc(Cl)c2)c2ccc(N(CCC#N)CCC#N)cc2C)cc1 | > 100 | > 100 | > 100 | > 100 | > 100 | > 100 | > 100 | > 100 | > 100 | > 100 |
| O=C1C=CC(=O)C(CNc2ccc(C(=O)OC34CC5CC(CC(C5)C3)C4)cc2)=C1 | 31.1 | 22.5 | 32.9 | 39.2 | 16.4 | 2.28 | 12 | 44.3 | 24.6 | 23 |
| Nc1nc(-c2ccccc2N=NN2CCCC2)nc2ccccc12 | 12.5 | 7.36 | 17.9 | 10.5 | 8.91 | 16.5 | 19.1 | 28.8 | 10.8 | 6.7 |
| CCCCc1cc2c(C)cc(=O)oc2c(O)c1O | 85 | 64.3 | > 100 | 67.3 | 56.1 | 49 | > 100 | > 100 | 77 | > 100 |
| CN(C)/N=C/c1cn(C)c(=O)n(C)c1=O | > 100 | > 100 | > 100 | > 100 | > 100 | > 100 | > 100 | > 100 | > 100 | > 100 |
| O=CC(O)C(O)C(O)C(O)C(=O)NCCCCCCCCCCCCNC(=O)C(O)C(O)C(O)C(O)C=O (stereo not given) | > 100 | > 100 | > 100 | > 100 | > 100 | > 100 | > 100 | > 100 | > 100 | > 100 |
